Data: PMC9896953, “Structural basis of unisite catalysis of bacterial F0F1-ATPase” (PNAS Nexus, 2022)

Legend:
[1] = molecular target: T1, wt-F0F1 (wild-type F0F1-ATPase / ATP synthase) (Bacillus sp. PS3, UniProt P07677+P07678+P09219); assay: cryo-EM structure; assay type: binding
T1 construct: gene atpD; holo complex α3β3γ1ε1δ1a1b2c10 from pTR19-ASDS, expressed in E. coli DK8, DDM-solubilised, Ni-NTA purified, nucleotide-depleted; with ATP synthase gamma chain; ATP synthase epsilon chain; ATP synthase subunit delta; ATP synthase subunit a; ATP synthase subunit b; ATP synthase subunit c

[2] = molecular target: T2, ΔεCT-F0F1 (F0F1 with C-terminal-truncated ε subunit) (Bacillus sp. PS3, UniProt P07677+P09219); assay: cryo-EM structure; assay type: binding; details: unisite conditions (substoichiometric ATP with PEP / pyruvate kinase), 25 °C, pH 8.0; catalytic site of closed βTP
T2 construct: gene atpD; holo complex, ε lacks residues 83-133; derived from pTR19-ASDS, expressed in E. coli, DDM-solubilised, Ni-NTA purified, nucleotide-depleted; PS3 origin is judgement; with ATP synthase gamma chain; ATP synthase epsilon chain; ATP synthase subunit delta; ATP synthase subunit a; ATP synthase subunit b; ATP synthase subunit c

SMILES	cryo-EM structure ([1]; sample exposed to 4 mM ATPγS, catalytic βDP (ε down), βTP and βDP (ε up))	cryo-EM structure [2]	cryo-EM structure ([1]; 4 mM ATPγS, ε-down form: catalytic βE and βTP and noncatalytic α sites, also bound in the retracted ε subunit (second site), ε-up form: βE)
Nc1ncnc2c1ncn2[C@@H]1O[C@H](COP(=O)(O)OP(=O)(O)O)[C@@H](O)[C@H]1O [ADP]	“closed in βTP with ADP,” and “open in βDP with ADP”	revealed a nucleotide density due to ADP at the catalytic site in βTP	
Nc1ncnc2c1ncn2[C@@H]1O[C@H](COP(=O)(O)OP(=O)(O)OP(O)(O)=S)[C@@H](O)[C@H]1O [ATPγS]			“open in βE with ATPγS,” “closed in βTP with ATPγS,” and “closed in βDP with ADP
